Paper PMC3341351, “Down-Regulation of GABAA Receptor via Promiscuity with the Vasoactive Peptide Urotensin II Receptor. Potential Involvement in Astrocyte Plasticity” (PLoS ONE, 2012)

System: GABAAR co-expressed with UT^HA 370
Assay: Patch-clamp of Iso-evoked current in CHO co-expressing GABAAR and truncated UT^HA 370
Format: cell-based
Details: hUII 10^−8 M, 1 min, Iso 10^−4 M, 2 s
Excerpt: For UT epitope-tagged with HA (UT^HA), or c-myc (UT^c-myc), human UT receptor cDNA inserted into pcDNA3.1 (Ressource Center, MI, USA) was amplified and PCR products were subcloned using the EcoRI and XhoI sites of pCMV-HA or pCMV-c-myc. Mutant UT receptor cDNAs were constructed by oligonucleotide-directed mutagenesis (Expand High Fidelity PCR System; Roche) using the human UT receptor cDNA inserted into pcDNA3.1 as a template. Two sets of forward and reverse oligonucleotides were used (Table S2) to introduce stop codons in frame of Leu370, Phe351, Gly332 and Thr319 (to generate UT371, UT351, UT332 and UT319, respectively). PCR products were subcloned using the EcoRI and XhoI sites of pCMV-HA after digestion by the same restriction enzymes. Mutagenesis was confirmed by automated nucleotide sequencing.
The conventional whole-cell configuration of the patch-clamp technique was used to study the GABA-gated currents in astrocytes and granule neurons, UT stably transfected CHO, CHO-UT, and CHO transiently transfected with diverse variants of UT and GABAAR subunits. After 24-h transfection, cell culture coverslips were placed in a small chamber (1.5 ml) on a stage of a right microscope DMLFSA (Leica, Heidelberg, Germany) and superfused continuously with the following bath solution containing (in mM): NaCl, 150; KCl, 2.5; HEPES, 5; CaCl2, 2; MgCl2, 1; glucose, 10 (pH 7.4 adjusted with NaOH). […]

ETPDCFWKYCV (disulfide) [hUII, human urotensin II, synthesized by solid phase methodology]
hUII-induced fast short-term inhibition with UT^HA 370: totally abolished | hUII-induced long-term inhibition with UT^HA 370 (washout): delayed, and significantly altered
